Source: patent publication US9926282B2, “Phthalazinones and isoquinolinones as rock inhibitors” (BRISTOL-MYERS SQUIBB COMPANY, priority 2013, dated 2018)

How the values were obtained:
ROCK2 = ROCK2 (Homo sapiens (Human), UniProt O75116); experiment: ROCK assay (LABCHIP peptide phosphorylation), ROCK2; format: biochemical; conditions: 5 μM ATP, 1.5 μM peptide substrate
ROCK1 = ROCK1 (Homo sapiens (Human), UniProt Q13464); experiment: ROCK assay (LABCHIP peptide phosphorylation), ROCK1; format: biochemical; conditions: 5 μM ATP, 1.5 μM peptide substrate; read-out: ROCK1 IC50
Chain of ROCK1 (Q13464 whole entry, species assumed): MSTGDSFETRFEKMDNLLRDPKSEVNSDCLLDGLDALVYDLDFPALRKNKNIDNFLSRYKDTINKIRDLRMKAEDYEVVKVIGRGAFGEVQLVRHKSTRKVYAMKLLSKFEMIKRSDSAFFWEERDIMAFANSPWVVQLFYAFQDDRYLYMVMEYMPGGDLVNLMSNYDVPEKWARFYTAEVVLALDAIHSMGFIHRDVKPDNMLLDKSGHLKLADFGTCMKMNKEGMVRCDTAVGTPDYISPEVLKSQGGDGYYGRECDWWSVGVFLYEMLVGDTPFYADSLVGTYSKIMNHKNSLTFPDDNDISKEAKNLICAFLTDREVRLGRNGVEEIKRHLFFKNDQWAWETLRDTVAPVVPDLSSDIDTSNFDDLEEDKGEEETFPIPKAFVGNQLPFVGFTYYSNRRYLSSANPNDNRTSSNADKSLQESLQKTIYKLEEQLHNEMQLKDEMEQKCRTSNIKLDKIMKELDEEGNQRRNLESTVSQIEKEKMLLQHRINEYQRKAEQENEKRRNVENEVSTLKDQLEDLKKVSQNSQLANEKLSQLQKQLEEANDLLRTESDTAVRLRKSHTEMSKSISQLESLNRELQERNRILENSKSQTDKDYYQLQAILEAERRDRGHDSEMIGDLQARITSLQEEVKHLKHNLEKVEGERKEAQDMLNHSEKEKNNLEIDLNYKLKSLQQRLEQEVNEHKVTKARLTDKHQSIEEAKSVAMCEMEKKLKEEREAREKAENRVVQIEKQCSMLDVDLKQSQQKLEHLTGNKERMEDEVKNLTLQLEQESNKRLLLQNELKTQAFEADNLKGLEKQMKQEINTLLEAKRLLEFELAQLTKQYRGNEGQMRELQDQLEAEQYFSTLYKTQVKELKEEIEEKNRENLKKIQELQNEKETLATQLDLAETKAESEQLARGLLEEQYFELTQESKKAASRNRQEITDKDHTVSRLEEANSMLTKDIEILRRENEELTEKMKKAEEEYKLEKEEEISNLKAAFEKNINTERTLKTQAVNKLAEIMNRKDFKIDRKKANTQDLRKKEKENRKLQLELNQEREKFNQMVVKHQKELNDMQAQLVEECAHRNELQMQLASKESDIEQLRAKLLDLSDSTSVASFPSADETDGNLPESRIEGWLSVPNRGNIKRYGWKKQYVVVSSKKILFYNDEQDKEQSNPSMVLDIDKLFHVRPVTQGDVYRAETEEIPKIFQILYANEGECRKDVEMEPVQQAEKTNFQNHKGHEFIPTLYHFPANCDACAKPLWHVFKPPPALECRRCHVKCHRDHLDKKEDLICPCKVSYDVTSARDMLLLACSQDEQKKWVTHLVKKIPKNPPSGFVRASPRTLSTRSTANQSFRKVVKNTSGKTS

Chain of ROCK2 (O75116 whole entry, species assumed): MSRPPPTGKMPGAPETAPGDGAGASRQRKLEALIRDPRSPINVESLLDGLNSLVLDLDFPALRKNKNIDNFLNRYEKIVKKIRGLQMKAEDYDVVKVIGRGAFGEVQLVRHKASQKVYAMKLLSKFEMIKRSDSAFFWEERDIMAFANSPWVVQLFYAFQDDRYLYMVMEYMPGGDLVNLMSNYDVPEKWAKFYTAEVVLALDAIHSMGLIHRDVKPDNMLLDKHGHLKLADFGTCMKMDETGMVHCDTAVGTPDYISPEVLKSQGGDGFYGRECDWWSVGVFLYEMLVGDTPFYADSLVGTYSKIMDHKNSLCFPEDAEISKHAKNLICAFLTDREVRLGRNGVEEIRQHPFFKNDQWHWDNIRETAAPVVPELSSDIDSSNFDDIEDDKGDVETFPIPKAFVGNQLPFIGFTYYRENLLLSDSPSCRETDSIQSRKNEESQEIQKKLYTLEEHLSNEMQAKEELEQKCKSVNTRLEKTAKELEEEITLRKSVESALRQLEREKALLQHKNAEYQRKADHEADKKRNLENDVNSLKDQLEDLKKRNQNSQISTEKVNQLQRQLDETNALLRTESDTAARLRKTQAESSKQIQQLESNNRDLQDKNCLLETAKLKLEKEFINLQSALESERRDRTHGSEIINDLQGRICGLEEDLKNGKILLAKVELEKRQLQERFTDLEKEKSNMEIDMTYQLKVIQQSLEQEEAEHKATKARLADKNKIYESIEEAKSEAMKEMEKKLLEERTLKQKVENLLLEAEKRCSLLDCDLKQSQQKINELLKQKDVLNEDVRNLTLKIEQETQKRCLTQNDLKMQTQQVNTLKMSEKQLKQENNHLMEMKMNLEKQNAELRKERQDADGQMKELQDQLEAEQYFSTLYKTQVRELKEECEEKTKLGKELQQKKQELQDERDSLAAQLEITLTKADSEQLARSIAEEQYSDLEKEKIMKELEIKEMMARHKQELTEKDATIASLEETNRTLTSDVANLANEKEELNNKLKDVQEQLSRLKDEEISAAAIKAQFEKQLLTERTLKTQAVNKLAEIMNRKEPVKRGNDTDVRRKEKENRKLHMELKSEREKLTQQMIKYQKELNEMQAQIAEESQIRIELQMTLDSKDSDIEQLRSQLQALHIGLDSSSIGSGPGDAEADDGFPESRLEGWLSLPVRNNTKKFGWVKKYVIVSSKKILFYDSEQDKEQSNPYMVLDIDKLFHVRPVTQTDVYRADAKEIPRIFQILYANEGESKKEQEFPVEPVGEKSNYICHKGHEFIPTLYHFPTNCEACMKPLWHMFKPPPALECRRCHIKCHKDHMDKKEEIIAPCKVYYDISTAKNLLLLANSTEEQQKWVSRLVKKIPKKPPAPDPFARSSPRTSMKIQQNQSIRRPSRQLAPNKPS

Compound	IC50 (ROCK2) [nM]	IC50 (ROCK1) [nM]
O=C(Nc1ccc(-c2n[nH]c(=O)c3ccccc23)cc1)c1nn(CC(O)COCc2ccccc2)c2ccccc12 (centres unmarked) [Example 147, 1-[3-(benzyloxy)-2-hydroxypropyl]-N-[4-(4-oxo-3,4-dihydrophthalazin-1-yl)phenyl]-1H-indazole-3-carboxamide]	0.1 to 100	0.1 to 100
O=C(O)Cn1nc(C(=O)Nc2ccc(-c3n[nH]c(=O)c4ccccc34)cc2)c2ccccc21 [Example 328, 2-(3-{[4-(4-Oxo-3,4-dihydrophthalazin-1-yl)phenyl]carbamoyl}-1H-indazol-1-yl)acetic Acid]	0.1 to 100	101 to 1000
Cc1cc(CC(=O)N2CCc3ccccc32)ccc1-c1n[nH]c(=O)c2ccccc12 [Example 259, 4-(4-(2-(Indolin-1-yl)-2-oxoethyl)-2-methylphenyl)phthalazin-1(2H)-one]	0.1 to 100	101 to 1000
O=C(Cc1ccc(-c2n[nH]c(=O)c3ccccc23)c(F)c1)N1Cc2ccccc2C1 [Example 37, 4-(2-Fluoro-4-(2-(isoindolin-2-yl)-2-oxoethyl)phenyl)phthalazin-1(2H)-one]	0.1 to 100	101 to 1000
O=C(Nc1ccc(-c2n[nH]c(=O)c3ccccc23)cc1)c1nn(CC2COC2)c2cc(F)ccc12 [Example 159, 6-fluoro-1-(oxetan-3-ylmethyl)-N-[4-(4-oxo-3,4-dihydrophthalazin-1-yl)phenyl]-1H-indazole-3-carboxamide]	0.1 to 100	0.1 to 100
CC(C)(O)Cn1nc(C(=O)Nc2ccc(-c3n[nH]c(=O)c4ccccc34)cc2O)c2ccccc21 [Example 353, 1-(2-Hydroxy-2-methylpropyl)-N-(2-hydroxy-4-(4-oxo-3,4-dihydrophthalazin-1-yl)phenyl)-1H-indazole-3-carboxamide]	0.1 to 100	101 to 1000
O=c1[nH]nc(-c2ccc(Nc3ncc(-c4ccccc4)o3)cc2)c2ccccc12 [Example 73, 4-(4-((5-Phenyloxazol-2-yl)amino)phenyl)phthalazin-1 (2H)-one]	0.1 to 100	101 to 1000
O=C(Cc1ccc(-c2n[nH]c(=O)c3ccccc23)c(F)c1)N1CCc2ccccc21 [Example 261, 4-(2-Fluoro-4-(2-(indolin-1-yl)-2-oxoethyl)phenyl)phthalazin-1(2H)-one]	0.1 to 100	0.1 to 100
CC(C)Oc1ccc2c(c1)N(C(=O)Cc1ccc(-c3n[nH]c(=O)c4ccccc34)cc1)CC2 [Example 258, 4-(4-(2-(6-Isopropoxyindolin-1-yl)-2-oxoethyl)phenyl)phthalazin-1(2H)-one]	0.1 to 100	0.1 to 100
O=C(Cc1ccc(-c2c[nH]c(=O)c3ccccc23)c(F)c1)N1CCc2ccccc21 [Example 287, 4-(2-Fluoro-4-(2-(indolin-1-yl)-2-oxoethyl)phenyl)isoquinolin-1 (2H)-one]	0.1 to 100	0.1 to 100
N-[4-(4-oxo-3,4- dihydrophthalazin-1- yl)phenyl]-1-[3- ylmethyl]-1H-indazole- 3-carboxamide [Example 170]	0.1 to 100	0.1 to 100
O=C(Cc1ccc(-c2n[nH]c(=O)c3ccccc23)cc1)N[C@@H]1CCc2ccccc21 [Example 81, (R)—N-(2,3-Dihydro-1H-inden-1-yl)-2-(4-(4-oxo-3,4-dihydrophthalazin-1-yl)phenyl)acetamide]	101 to 1000	1000 to 50000
O=C(Nc1ccc(-c2n[nH]c(=O)c3ccccc23)cc1)c1nn(CC2CCN(C(=O)OCC(F)(F)F)CC2)c2ccccc12 [Example 351, 2,2,2-Trifluoroethyl 4-[(3-{[4-(4-oxo-3,4-dihydrophthalazin-1-yl)phenyl]carbamoyl}-1H-indazol-1-yl)methyl]piperidine-1-carboxylate]	0.1 to 100	0.1 to 100
O=C(Cc1ccc(-c2n[nH]c(=O)c3ccccc23)cc1)Nc1ccncc1 [Example 7, 2-[4-(4-oxo-3,4-dihydrophthalazin-1-yl)phenyl]-N-(pyridin-4-yl)acetamide]	0.1 to 100	
O=C(Cc1ccc(-c2n[nH]c(=O)c3ccccc23)cc1)Nc1cccnc1 [Example 5, 2-[4-(4-oxo-3,4-dihydrophthalazin-1-yl)phenyl]-N-(pyridin-3-yl)acetamide]	101 to 1000	
O=C(Cc1ccc(-c2n[nH]c(=O)c3ccccc23)cc1)N1Cc2ccccc2C1 [Example 1, 4-(4-(2-(Isoindolin-2-yl)-2-oxoethyl)phenyl)phthalazin-1(2H)-one]	0.1 to 100	
O=C(Cc1ccc(-c2n[nH]c(=O)c3ccccc23)cc1)N1CCc2ccccc2C1 [Example 4, 4-{4-[2-oxo-2-(1,2,3,4-tetrahydroisoquinolin-2-yl)ethyl]phenyl}-1,2-dihydrophthalazin-1-one]	101 to 1000	
O=C(Cc1ccc(-c2n[nH]c(=O)c3ccccc23)cc1)NCc1ccccc1 [Example 6, N-benzyl-2-[4-(4-oxo-3,4-dihydrophthalazin-1-yl)phenyl]acetamide]	101 to 1000	
O=C(Oc1ccc(-c2n[nH]c(=O)c3ccccc23)cc1)N1Cc2ccccc2C1 [Example 68, 4-(4-Oxo-3,4-dihydrophthalazin-1-yl)phenyl isoindoline-2-carboxylate]	0.1 to 100	

Next, values leading:

IC50 (ROCK2) [nM]	IC50 (ROCK1) [nM]	Compound
0.1 to 100	0.1 to 100	Cc1ccccc1-n1ncc(C(=O)Nc2ccc(-c3n[nH]c(=O)c4ccccc34)cc2)c1C [Example 214, 5-methyl-1-(2-methylphenyl)-N-[4-(4-oxo-3,4-dihydrophthalazin-1-yl)phenyl]-1H-pyrazole-4-carboxamide]
0.1 to 100	101 to 1000	COc1ccc2c(=O)[nH]cc(-c3ccc(CC(=O)N4Cc5ccccc5C4)cc3)c2c1 [Example 262, 4-{4-[2-(2,3-Dihydro-1H-isoindol-2-yl)-2-oxoethyl]phenyl}-6-methoxy-1,2-dihydroisoquinolin-1-one]
0.1 to 100	101 to 1000	CC(C)c1c(C(=O)Nc2ccc(-c3n[nH]c(=O)c4ccccc34)cc2)cn2nc[nH]c(=O)c12 [Example 108, 4-oxo-N-[4-(4-oxo-3,4-dihydrophthalazin-1-yl)phenyl]-5-(propan-2-yl)-3H,4H-pyrrolo[2,1-f][1,2,4]triazine-6-carboxamide]
0.1 to 100	0.1 to 100	O=C(Nc1ccc(-c2n[nH]c(=O)c3ccccc23)cc1)c1cnc2ccccn12 [Example 104, N-[4-(4-oxo-3,4-dihydrophthalazin-1-yl)phenyl]imidazo[1,2-a]pyridine-3-carboxamide]
1000 to 50000	1000 to 50000	Cc1cc(NC(=O)c2c3ccccc3nn2CC2COC2)ccc1-c1n[nH]c(=O)c2ccccc12 [Example 305, N-[3-methyl-4-(4-oxo-3,4-dihydrophthalazin-1-yl)phenyl]-2-(oxetan-3-ylmethyl)-2H-indazole-3-carboxamide]
0.1 to 100	0.1 to 100	O=C(Nc1ccc(-c2c[nH]c(=O)c3ccccc23)cc1)c1ccc(N2CCCCC2)cc1 [Example 249, N-(4-(1-Oxo-1,2-dihydroisoquinolin-4-yl)phenyl)-4-(piperidin-1-yl)benzamide]
0.1 to 100	101 to 1000	CN1CCN(C(=O)c2ccc3c(c2)N(C(=O)Cc2ccc(-c4n[nH]c(=O)c5ccccc45)cc2)CC3)CC1 [Example 292, 4-(4-{2-[6-(4-methylpiperazine-1-carbonyl)-2,3-dihydro-1H-indol-1-yl]-2-oxoethyl}phenyl)-1,2-dihydrophthalazin-1-one]
0.1 to 100	0.1 to 100	O=C(O)COc1ccc2c(c1)N(C(=O)Cc1ccc(-c3n[nH]c(=O)c4ccccc34)cc1)CC2 [Example 290, 2-((1-(2-(4-(4-Oxo-3,4-dihydrophthalazin-1-yl)phenyl)acetyl)indolin-6-yl)oxy)acetic Acid]
0.1 to 100	101 to 1000	Cc1onc(NC(=O)Cc2ccc(-c3n[nH]c(=O)c4ccccc34)cc2)c1C [Example 280, N-(dimethyl-1,2-oxazol-3-yl)-2-[4-(4-oxo-3,4-dihydrophthalazin-1-yl)phenyl]acetamide]
0.1 to 100	0.1 to 100	Cc1cc(C(=O)Nc2ccc(-c3n[nH]c(=O)c4ccccc34)cc2)nn1-c1ccccc1 [Example 213, 5-methyl-N-[4-(4-oxo-3,4-dihydrophthalazin-1-yl)phenyl]-1-phenyl-1H-pyrazole-3-carboxamide]
101 to 1000	1000 to 50000	O=C(Nc1ccc(-c2n[nH]c(=O)c3ccccc23)cc1)C1CC(=O)N(c2cccc(Cl)c2F)C1 (centres unmarked) [Example 211, 1-(3-chloro-2-fluorophenyl)-5-oxo-N-[4-(4-oxo-3,4-dihydrophthalazin-1-yl)phenyl]pyrrolidine-3-carboxamide]
0.1 to 100		O=C(Nc1ccc(-c2n[nH]c(=O)c3ccccc23)cc1)c1csc(-c2ccncc2)n1 [Example 45, N-(4-(4-Oxo-3,4-dihydrophthalazin-1-yl)phenyl)-2-(pyridin-4-yl)thiazole-4-carboxamide]
0.1 to 100	1000 to 50000	Cc1cc(NC(=O)Cc2ccc(-c3n[nH]c(=O)c4ccccc34)cc2)on1 [Example 26, N-(3-methyl-1,2-oxazol-5-yl)-2-[4-(4-oxo-3,4-dihydrophthalazin-1-yl)phenyl]acetamide]
101 to 1000	1000 to 50000	O=C(Nc1ccc(-c2n[nH]c(=O)c3ccccc23)cc1)C1CC(c2ccccc2)=NO1 (centres unmarked) [Example 196, N-[4-(4-oxo-3,4-dihydrophthalazin-1-yl)phenyl]-3-phenyl-4,5-dihydro-1,2-oxazole-5-carboxamide]
1000 to 50000		CN(Cc1ccccc1)C(=O)Cc1ccc(-c2n[nH]c(=O)c3ccccc23)cc1 [Example 8, N-benzyl-N-methyl-2-[4-(4-oxo-3,4-dihydrophthalazin-1-yl)phenyl]acetamide]
	101 to 1000	O=C(Cc1ccc(-c2c[nH]c(=O)c3ccccc23)c(F)c1)N1Cc2ccccc2C1 [Example 256, 4-(2-Fluoro-4-(2-(isoindolin-2-yl)-2-oxoethyl)phenyl)isoquinolin-1(2H)-one]
0.1 to 100		O=C(Nc1ccc(-c2n[nH]c(=O)c3ccccc23)cc1)c1csc(-c2cc(F)cc(F)c2)n1 [Example 49, 2-(3,5-difluorophenyl)-N-[4-(4-oxo-3,4-dihydrophthalazin-1-yl)phenyl]-1,3-thiazole-4-carboxamide]
